Values of other authors, collected in patent publication US8227637B2, “Stable, water-soluble near infrared dyes” (Epolin, Inc., priority 2008, dated 2012).

Details: SbF6 salt of U.S. Pat. No. 3,709,830, statement in background

SMILES: OCCN(CCO)c1ccc([N+](=C2C=CC(=[N+](c3ccc(N(CCO)CCO)cc3)c3ccc(N(CCO)CCO)cc3)C=C2)c2ccc(N(CCO)CCO)cc2)cc1.[F][Sb-]([F])([F])([F])([F])[F].[F][Sb-]([F])([F])([F])([F])[F] [N,N′,N″,N′″-tetrakis(4-[di(2-hydroxyethyl)amino]-phenyl)-p-benzoquinonebis(imoniumhexafluoro-antimonate)]
- water solubility: not water-soluble
